Experiments:
[1] = target: T1, 5-hydroxytryptamine receptor 2C (Homo sapiens, UniProt P28335)
T1 sequence (P28335 whole entry): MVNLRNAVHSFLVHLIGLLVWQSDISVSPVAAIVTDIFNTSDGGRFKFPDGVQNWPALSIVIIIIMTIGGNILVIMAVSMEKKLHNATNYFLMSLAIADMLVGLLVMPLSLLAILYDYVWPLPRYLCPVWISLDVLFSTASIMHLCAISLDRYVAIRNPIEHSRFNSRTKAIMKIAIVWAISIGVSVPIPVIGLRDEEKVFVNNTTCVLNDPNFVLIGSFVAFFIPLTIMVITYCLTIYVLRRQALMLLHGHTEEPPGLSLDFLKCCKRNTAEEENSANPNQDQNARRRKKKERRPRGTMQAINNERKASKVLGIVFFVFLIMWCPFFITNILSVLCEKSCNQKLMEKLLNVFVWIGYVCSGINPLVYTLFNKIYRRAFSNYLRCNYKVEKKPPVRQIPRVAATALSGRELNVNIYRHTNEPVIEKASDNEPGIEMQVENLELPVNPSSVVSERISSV

[2] = target: 5-hydroxytryptamine receptor 2B (Homo sapiens, UniProt P41595)
Chain of 5-hydroxytryptamine receptor 2B (P41595 whole entry): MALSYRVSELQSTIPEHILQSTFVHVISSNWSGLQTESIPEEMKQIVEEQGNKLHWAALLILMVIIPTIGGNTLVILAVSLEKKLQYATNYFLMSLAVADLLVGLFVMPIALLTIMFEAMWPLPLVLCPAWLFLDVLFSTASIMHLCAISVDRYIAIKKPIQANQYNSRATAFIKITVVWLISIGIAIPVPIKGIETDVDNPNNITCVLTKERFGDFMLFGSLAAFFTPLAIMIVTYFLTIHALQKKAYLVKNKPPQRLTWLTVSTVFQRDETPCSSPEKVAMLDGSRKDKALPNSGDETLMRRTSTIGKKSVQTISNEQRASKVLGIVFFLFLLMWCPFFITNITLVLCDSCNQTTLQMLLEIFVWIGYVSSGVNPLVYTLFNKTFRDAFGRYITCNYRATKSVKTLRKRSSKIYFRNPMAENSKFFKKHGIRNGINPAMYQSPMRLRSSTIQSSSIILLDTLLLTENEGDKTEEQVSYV

| SMILES | Ki [1] | Ki [2] |
| --- | --- | --- |
| C[C@@H](N)Cc1cccc(C(F)(F)F)c1 [l-norfenfluramine] | 99 nM | 65 nM |
| C[C@H](N)Cc1cccc(C(F)(F)F)c1 [Norfenfluramine (+)] | 56 nM | 27 nM |

From BindingDB's records for PubMed 10617681 (Dupont Pharmaceuticals, 2000)
